Test results reported in ChEMBL document CHEMBL5247620, “Lupane derivatives containing various aryl substituents in the position 3 have selective cytostatic effect in leukemic cancer cells including resistant phenotypes” (Eur J Med Chem, 2022).

Assays:
CCRF-CEM = assay: Cytotoxicity against human CCRF-CEM cells assessed as inhibition of cell growth incubated for 72 hrs by MTS assay; assay type: functional, cell-based
CEM-DNR = assay: Cytotoxicity against human CEM-DNR cells assessed as inhibition of cell growth incubated for 72 hrs by MTS assay; assay type: functional, cell-based
K562 = assay: Cytotoxicity against human K562 cells assessed as inhibition of cell growth incubated for 72 hrs by MTS assay; assay type: functional, cell-based; conditions: K562, 72 h
[1] = Cytotoxicity against human K562-Tax cells assessed as inhibition of cell growth incubated for 72 hrs by MTS assay; assay type: functional, cell-based
A549 = assay: Cytotoxicity against human A549 cells assessed as inhibition of cell growth incubated for 72 hrs by MTS assay; assay type: functional, cell-based; conditions: A549, 72 h
HCT-116 = assay: Cytotoxicity against human HCT-116 cells assessed as inhibition of cell growth incubated for 72 hrs by MTS assay; assay type: functional, cell-based; conditions: HCT-116, 72 h
[2] = Cytotoxicity against human p53HCT116 cells assessed as inhibition of cell growth incubated for 72 hrs by MTS assay; assay type: functional, cell-based; conditions: p53HCT116, 72 h
U2OS = assay: Cytotoxicity against human U2OS cells assessed as inhibition of cell growth incubated for 72 hrs by MTS assay; assay type: functional, cell-based
[3] = Cytotoxicity against human BJ cells assessed as inhibition of cell growth incubated for 72 hrs by MTS assay; assay type: toxicity, cell-based
[4] = Cytotoxicity against human MRC5 cells assessed as inhibition of cell growth incubated for 72 hrs by MTS assay; assay type: toxicity, cell-based

SMILES	IC50 (CCRF-CEM)	IC50 (CEM-DNR)	IC50 (K562)	IC50 [1]	IC50 (A549)	IC50 (HCT-116)	IC50 [2]	IC50 (U2OS)	IC50 at 72 h [3]	IC50 at 72 h [4]
C=C(C)[C@@H]1CC[C@]2(C(=O)OCc3ccccc3)CC[C@]3(C)[C@H](CC[C@@H]4[C@@]5(C)CC=C(OS(=O)(=O)C(F)(F)F)C(C)(C)[C@@H]5CC[C@]43C)[C@@H]12	14 µM	22 µM	23 µM	18 µM	20 µM	22 µM	29 µM	29 µM	40 µM	27 µM
C=C(C)[C@@H]1CC[C@]2(C(=O)O)CC[C@]3(C)[C@H](CC[C@@H]4[C@@]5(C)CC=C(c6ccc(N)cc6)C(C)(C)[C@@H]5CC[C@]43C)[C@@H]12	3.8 µM	11 µM	17 µM	19 µM	26 µM	25 µM	24 µM	22 µM	> 50 µM	> 50 µM
C=C(C)[C@@H]1CC[C@]2(C(=O)O)CC[C@]3(C)[C@H](CC[C@@H]4[C@@]5(C)CC=C(c6ccccc6N)C(C)(C)[C@@H]5CC[C@]43C)[C@@H]12	11 µM	46 µM	46 µM	44 µM	24 µM	46 µM	18 µM	27 µM	> 50 µM	> 50 µM
C=C(C)[C@@H]1CC[C@]2(C(=O)O)CC[C@]3(C)[C@H](CC[C@@H]4[C@@]5(C)CC=C(c6ccc(C(=O)OC)cc6)C(C)(C)[C@@H]5CC[C@]43C)[C@@H]12	46 µM	47 µM	48 µM	7.2 µM	47 µM	47 µM	47 µM	46 µM	47 µM	46 µM
C=C(C)[C@@H]1CC[C@]2(C(=O)O)CC[C@]3(C)[C@H](CC[C@@H]4[C@@]5(C)CC=C(c6cccc(C(F)(F)F)c6)C(C)(C)[C@@H]5CC[C@]43C)[C@@H]12	19 µM	37 µM	> 50 µM	30 µM	46 µM	37 µM	> 50 µM	45 µM	> 50 µM	50 µM
C=C(C)[C@@H]1CC[C@]2(C(=O)O)CC[C@]3(C)[C@H](CC[C@@H]4[C@@]5(C)CC=C(c6ccccc6OC)C(C)(C)[C@@H]5CC[C@]43C)[C@@H]12	16 µM	24 µM	30 µM	23 µM	42 µM	24 µM	23 µM	28 µM	48 µM	27 µM
C=C(C)[C@@H]1CC[C@]2(C(=O)O)CC[C@]3(C)[C@H](CC[C@@H]4[C@@]5(C)CC=C(c6cccc(C(=O)OC)c6)C(C)(C)[C@@H]5CC[C@]43C)[C@@H]12	17 µM	> 50 µM	> 50 µM	43 µM	> 50 µM	50 µM	41 µM	8.8 µM	> 50 µM	44 µM
C=C(C)[C@@H]1CC[C@]2(C(=O)O)CC[C@]3(C)[C@H](CC[C@@H]4[C@@]5(C)CC=C(c6ccccc6C(=O)OC)C(C)(C)[C@@H]5CC[C@]43C)[C@@H]12	15 µM	27 µM	26 µM	29 µM	26 µM	27 µM	23 µM	25 µM	38 µM	22 µM
C=C(C)[C@@H]1CC[C@]2(C(=O)O)CC[C@]3(C)[C@H](CC[C@@H]4[C@@]5(C)CC=C(c6cccc(OC)c6)C(C)(C)[C@@H]5CC[C@]43C)[C@@H]12	15 µM	31 µM	> 50 µM	29 µM	45 µM	31 µM	> 50 µM	35 µM	> 50 µM	> 50 µM
C=C(C)[C@@H]1CC[C@]2(C(=O)O)CC[C@]3(C)[C@H](CC[C@@H]4[C@@]5(C)CC=C(c6ccccc6O)C(C)(C)[C@@H]5CC[C@]43C)[C@@H]12	10 µM	30 µM	> 50 µM	15 µM	41 µM	30 µM	> 50 µM	26 µM	> 50 µM	31 µM
C=C(C)[C@@H]1CC[C@]2(C(=O)O)CC[C@]3(C)[C@H](CC[C@@H]4[C@@]5(C)CC=C(c6ccc(OC)cc6)C(C)(C)[C@@H]5CC[C@]43C)[C@@H]12	23 µM	50 µM	50 µM	50 µM	43 µM	50 µM	50 µM	42 µM	50 µM	46 µM
C=C(C)[C@@H]1CC[C@]2(C(=O)O)CC[C@]3(C)[C@H](CC[C@@H]4[C@@]5(C)CC=C(c6ccc([N+](=O)[O-])cc6)C(C)(C)[C@@H]5CC[C@]43C)[C@@H]12	26 µM	> 50 µM	> 50 µM	> 50 µM	> 50 µM	> 50 µM	> 50 µM	42 µM	> 50 µM	> 50 µM
C=C(C)[C@@H]1CC[C@]2(C(=O)O)CC[C@]3(C)[C@H](CC[C@@H]4[C@@]5(C)CC=C(c6cccc([N+](=O)[O-])c6)C(C)(C)[C@@H]5CC[C@]43C)[C@@H]12	18 µM	43 µM	45 µM	24 µM	34 µM	48 µM	47 µM	46 µM	50 µM	48 µM
